According to ChEMBL document CHEMBL5385887, “Discovery of Sibiriline derivatives as novel receptor-interacting protein kinase 1 inhibitors” (Eur J Med Chem, 2023):
Calls of active or inactive are those of the source. The rule behind the calls is not given here.

Assays:
L929 = assay: Anti-necroptosis activity against TNFalpha/z-VAD-fmk-induced mouse L929 cell necroptosis model assessed as cell viability pretreated with compound for 1 hr followed by treated with TZ for 6 hrs; assay type: functional, cell-based
[1] = Cytotoxicity against mouse L929 cells by CCK-8 assay; assay type: toxicity, cell-based
[2] = molecular target: T1, Receptor-interacting serine/threonine-protein kinase 1 (Homo sapiens, UniProt Q13546); assay: Inhibition of RIPK1 (unknown origin) using MBP substrate incubated for 2 hrs by ADP-Glo kinase function assay
T1 sequence (Q13546 whole entry): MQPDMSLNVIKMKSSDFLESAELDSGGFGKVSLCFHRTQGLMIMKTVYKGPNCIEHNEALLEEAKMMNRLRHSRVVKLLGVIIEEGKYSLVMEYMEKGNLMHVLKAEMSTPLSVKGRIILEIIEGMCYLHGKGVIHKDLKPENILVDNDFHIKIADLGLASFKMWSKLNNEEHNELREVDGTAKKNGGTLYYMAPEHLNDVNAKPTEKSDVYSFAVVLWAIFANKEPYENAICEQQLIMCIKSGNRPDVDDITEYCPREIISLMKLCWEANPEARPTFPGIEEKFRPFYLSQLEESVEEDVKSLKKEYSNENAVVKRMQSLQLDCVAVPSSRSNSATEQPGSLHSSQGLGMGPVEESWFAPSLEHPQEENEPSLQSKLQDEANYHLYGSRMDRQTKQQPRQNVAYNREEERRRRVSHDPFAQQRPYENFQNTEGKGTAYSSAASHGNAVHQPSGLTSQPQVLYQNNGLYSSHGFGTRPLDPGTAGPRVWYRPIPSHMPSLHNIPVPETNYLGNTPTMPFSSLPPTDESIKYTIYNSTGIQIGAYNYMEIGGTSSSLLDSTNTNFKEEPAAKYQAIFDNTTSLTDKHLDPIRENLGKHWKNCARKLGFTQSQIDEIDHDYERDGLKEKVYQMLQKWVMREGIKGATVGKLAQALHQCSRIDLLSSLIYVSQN

Mus musculus = assay: In vivo anti-necroptotic effect in TNFalpha-induced systemic inflammatory response syndrome C57BL/6J mouse model assessed as reduction in hypothermic injury by measuring increase in survival at 10 mg/kg, ip followed by compound treatment after 1 hr injected moue TNFalpha and measured continuously upto 72 hrs; assay type: functional; conditions: time 73 hrs
HT-29 = assay: Anti-necroptosis activity against TS-induced human HT-29 cell necroptosis model assessed as cell viability at 0.039 to 10 uM pretreated with compound for 1 hr followed by treated with TS for 12 hrs; assay type: functional, cell-based; conditions: dose 0.039-10 µM

Row | SMILES | IC50 [2] [nM] | EC50 (L929) [nM] | CC50 [1] [nM] | survival at 10 mg/kg (Mus musculus) [%] | Activity (HT-29)
1 | CN1C(=O)C(Cc2c[nH]c3ccccc23)NC1=S (stereo unspecified) [NECROSTATIN] | – | – | – | 25 | –
2 | Oc1ccc(-c2cc3cccnc3[nH]2)cc1Cl | 3870 | 5140 | > 50000 | – | –
3 | Oc1ccc(-c2ccc3cc[nH]c3n2)cc1 | – | > 10000 | > 50000 | – | –
4 | Oc1ccc2ccc(-c3cc4cccnc4[nH]3)cc2c1 | 2600 | 1420 | > 50000 | – | –
5 | CC(C)(C)Oc1ccc(-c2cnc3[nH]ccc3c2)cc1 | – | > 10000 | > 20000 | – | –
6 | CCCNC(=O)c1ccc(-c2cc3cccnc3[nH]2)cc1 | 630 | 810 | > 50000 | – | –
7 | Oc1ccc(-c2cc3cccnc3[nH]2)cc1F | 2560 | 1180 | > 50000 | – | –
8 | Oc1ccc(-c2cnc3[nH]ccc3c2)cc1 | 1090 | 1470 | > 50000 | – | –
9 | Oc1cccc(-c2cnc3[nH]ccc3c2)c1 | – | > 10000 | > 50000 | – | –
10 | c1ccc(Oc2ccc(-c3cc4cccnc4[nH]3)cc2)cc1 | 9000 | 7540 | > 50000 | – | –
11 | Oc1ccc(-c2cnc3[nH]cnc3c2)cc1 | – | > 10000 | > 50000 | – | –
12 | c1ccc(Oc2ccccc2-c2cnc3[nH]ccc3c2)cc1 | – | > 10000 | > 20000 | – | –
13 | Oc1ccccc1-c1cc2cccnc2[nH]1 | 950 | 1140 | > 50000 | – | –
14 | c1cnc2[nH]c(-c3ccc4c(c3)CCCO4)cc2c1 | 1180 | 890 | > 50000 | – | –
15 | Oc1ccc(-c2cc3cccnc3[nH]2)cc1 | – | 1310 | > 50000 | – | inactive
16 | Oc1ccccc1-c1cnc2[nH]ccc2c1 | – | > 10000 | > 50000 | – | –
17 | Oc1cccc(-c2cc3cccnc3[nH]2)c1 | 1080 | 1230 | > 50000 | – | –
18 | Oc1ccc(-c2c[nH]c3ncccc23)cc1 | – | > 10000 | > 50000 | – | –
19 | Oc1ccc(-c2cnc3[nH]ccc3n2)cc1 | 4860 | 5100 | > 50000 | – | –
20 | Oc1ccc(-c2ccnc3[nH]ccc23)cc1 | – | > 10000 | > 50000 | – | –
21 | O/N=C/c1ccc(-c2cnc3[nH]ccc3c2)cc1 | 3660 | 4270 | > 20000 | – | –
22 | Oc1ccc(-c2cnc3nccnc3c2)cc1 | – | > 10000 | > 50000 | – | –
23 | N#Cc1ccc(-c2cnc3[nH]ccc3c2)cc1 | 1170 | 1850 | > 50000 | – | –

Further lines, with some results ahead:

Row | IC50 [2] [nM] | SMILES | EC50 (L929) [nM] | CC50 [1] [nM] | survival at 10 mg/kg (Mus musculus) [%] | Activity (HT-29)
24 | 170 | OCc1ccc(-c2cc3cccnc3[nH]2)cc1 | 140 | > 50000 | – | –
25 | 200 | O=C(NC1CC1)c1ccc(-c2cc3cccnc3[nH]2)cc1 | 190 | > 50000 | – | –
26 | 130 | CC(C)N(C(=O)c1ccc(-c2cc3cccnc3[nH]2)cc1)C(C)C | 190 | > 50000 | – | –
27 | 140 | O=C(c1ccc(-c2cc3cccnc3[nH]2)cc1)N1CCCC1 | 260 | > 50000 | – | –
28 | 220 | CC(C)(C)Oc1ccc(-c2cc3cccnc3[nH]2)cc1 | 170 | > 50000 | – | –
29 | 170 | NC(=O)c1ccc(-c2cnc3[nH]ccc3c2)cc1 | 710 | > 50000 | – | –
30 | 100 | O=C(c1ccc(-c2cc3cccnc3[nH]2)cc1)N1CCNCC1 | 90 | > 50000 | – | –
31 | 240 | Nc1ccc(-c2cc3cccnc3[nH]2)cc1 | 270 | > 50000 | – | –
32 | 230 | OCCc1ccc(-c2cc3cccnc3[nH]2)cc1 | 300 | > 50000 | – | –
33 | 110 | NC(=O)c1ccc(-c2cc3cccnc3[nH]2)cc1 | 90 | > 50000 | – | –
34 | 230 | Oc1ccc(-c2ccc(-c3cc4cccnc4[nH]3)cc2)cc1 | 350 | > 10000 | – | –
35 | 120 | COc1cc(-c2cc3cccnc3[nH]2)ccc1O | 140 | > 50000 | – | –
36 | 350 | c1cnc2[nH]c(-c3ccc4ncsc4c3)cc2c1 | 340 | > 50000 | – | –
37 | 270 | O/N=C/c1ccc(-c2cc3cccnc3[nH]2)cc1 | 670 | > 50000 | – | –
38 | 93 | CNC(=O)c1ccc(-c2cc3cccnc3[nH]2)cc1 | 95 | > 50000 | – | –
39 | 90 | COc1ccc(-c2cc3ccc[nH]c-3n2)cc1 | 150 | > 50000 | – | –
40 | 120 | O=C(c1ccc(-c2cc3cccnc3[nH]2)cc1)N1CCCCC1 | 130 | > 50000 | – | –
41 | 500 | CC(C)NC(=O)c1ccc(-c2cc3cccnc3[nH]2)cc1 | 810 | > 50000 | – | –
42 | 90 | CC(C)(C)NC(=O)c1ccc(-c2cc3cccnc3[nH]2)cc1 | 170 | > 50000 | – | –
43 | 180 | CCNC(=O)c1ccc(-c2cc3cccnc3[nH]2)cc1 | 240 | > 50000 | – | –
44 | 100 | CN1CCN(C(=O)c2ccc(-c3cc4cccnc4[nH]3)cc2)CC1 | 60 | > 20000 | – | –
